Assay results published in patent publication US5939403A, “Keratan sulfate oligosaccharide fraction and pharmaceutical containing the same” (Seikagaku Corporation, priority 1994, dated 1999).

Key:
allergic conjunctivitis = test: TDI-induced allergic conjunctivitis model, eye dropping; format: in vivo, female Hartley guinea pigs; details: 6.0 mg/ml eye drop, comparison of oligosaccharides
Method: A variety of the keratan sulfate oligosaccharide was dropped in the eyes of the guinea pigs subjected to the induction of allergic conjunctivitis to examine the effect thereof.
Toluene diisocyanate (hereinafter referred to as TDI) was diluted with ethyl acetate to a concentration of 10%. To the bilateral vestibule of noses of 10 female Hartley guinea pigs of from about 900 to 1,000 g weight, the 10% TDI (10 μl/animal) obtained above was applied once a day for five days to prepare the TDI sensitization models. The PBS solution of the purified keratan sulfate tetrasaccharide (I) ([…]) which was prepared in Example 1 was dropped in the left eyes of the TDI sensitization models, while PBS was dropped in the right eyes as the control. The dose of dropping was one drop (48+4.6 μl (S.D.)) each from the eye dropper. After 10 minutes, 6.5 μl of 10% TDI was dropped to the both eyes to induce conjunctivitis. After five minutes standing, furthermore, the PBS solution of the keratan sulfate tetrasaccharide (I) ([…]) was dropped in the left eyes, and PBS was dropped in the right eyes. After 15 minutes, observation of the both eyes were carried out. The degree of conjunctivitis was evaluated regarding three items of hyperemia, edema and lacrimation into four grades such as point 0, +1, +2 and +3. In the figure, * represents that it has the significant difference with p<0.05 (wherein "p" means a level of significance by the .chi.^2 test).
The PBS solution of the purified keratan sulfate disaccharide (III), the keratan sulfate tetrasaccharide (I), and the keratan sulfate pentasaccharide (II) (6.0 mg/ml, respectively)which were prepared in Example 1 described above as the test substances were dropped, respectively, in the left eyes of the TDI sensitization models of 10 animals a group each which were prepared in the same manner as in (1) described above, and PBS was dropped in the right eyes as the control. The degree of conjunctivitis was evaluated in the same manner as in (1) described above. In the figure, * represents that it has the significant difference with p<0.05 (wherein "p" means a level of significance by the .chi.^2 test).
The PBS solution containing the purified keratan sulfate tetrasaccharide (I) which was prepared in Example 1 described above, at varieties of concentrations (6 mg/ml, 3 mg/ml, 1.5 mg/ml or 0.75 mg/ml) as the test substance, were dropped, respectively, in the left eyes of the TDI sensitization models of 10 animals a group each which were prepared in the same manner as in (1) described above, and PBS was dropped in the right eyes as the control. The degree of conjunctivitis was evaluated in the same manner as in (1) described above. In the figure, * represents that it has the significant differnce with p<0.05 (wherein "p" means a level of significance by the .chi.^2 test).

papain-induced arthritis = test: Papain-induced unilateral arthritis model, intramuscular administration (volume of synovial fluid); format: in vivo, Japanese white rabbits (female); details: 0.5 mg/kg intramuscular, unilateral model; 10 rabbits per group
Method: The anti-inflammatory effect of the keratan sulfate oligosaccharide with rabbits of the papain-induced arthritis model was examined using the volume of synovial fluid as an indication.
Seven days after the injection, the blood was drawn from the auricular artery, and plasma containing heparin was separated. After drawing the blood, the rabbits were anatomized and the both knee joint were separated. The articular cavity was washed with 2 ml of saline three times to recover the synovial fluid. The calcium concentrations in the plasma and the recovered synovial fluid were determined, and the volume of synovial fluid was calculated from the following formula.
Volume of Synovial Fluid (ul/articulation)=Amount of Calcium in Recovered
Synovial Fluid (μg/articulation)/Concentration of Calcium in Plasma
Into the articular cavity of left joint of Japanese white rabbits (female) of 3 kg weight, 150 μl of the saline solution of papain (1%) was injected, and the right joint was not treated to prepare the unilateral arthritis model. One day after injecting papain, 150 μl of the PBS solution of the purified keratan sulfate tetrasaccharide (I) (2%, 1%, and 0.5% solution; 1.0 mg/kg, 0.5 mg/kg, and 0.25 mg/kg, respectively) which was prepared in Example 1 was injected into the hip muscle of the left side (hereinafter referred to as "the keratan sulfate tetrasaccharide (I) administered group"). As the control, 150 μl of PBS was injected to the arthritis model instead of the PBS solution of the keratan sulfate tetrasaccharide (I) and hereinafter these rabbits are referred to as "the control group". And the normal rabbits not subjected to the papain injection (hereinafter referred to as "the normal group") were also examined in the same manner hereinafter. Seven days after the injection, the volume of synovial fluid was calculated in the same manner as in (1-1).
The examination was performed in the same manner as in (1-3) except for using 150 μl of the PBS solution of the purified keratan sulfate tetrasaccharide (I), the keratan sulfate pentasaccharide (II), and the keratan sulfate disaccharide (III) (1% solution; 0.5 mg/kg) which were prepared in Example 1. In the figure, *, **, and *** represent that they have the significant difference with p<0.05, p<0.01, and p<0.001, respectively. And in each group, 10 rabbits were used for the examination.

[1] = system: neutrophile of guinea pig; test: Inhibition of active oxygen (O2^-) generation in FMLP-stimulated neutrophile; format: cell-based, female Hartley guinea pigs
Method: To female Hartley guinea pigs of five weeks old (purchased from Japan SLC), 20 ml of the 0.2% aqueous solution of glycogen (Type II; Oyster; Sigma) dissolved in saline which was previously sterilized with autoclave, was intraperitoneally administered. The guinea pigs were sacrificed by bleeding 16 hours after the administration, and 20 ml of the saline containing heparin at a concentration of 10 U/ml was intraperitoneally injected to recover the peritoneal exudate. Hereinafter all the operations were carried out under ice-water cooling condition except for incubation. The recovered exudate was centrifuged at 1,000 rpm for 10 minutes, the precipitate obtained was hemolyzed with purified water for 30 seconds, and returned into isotonicity with the Hanks' solution at double the concentration (not containing phenol red; Nissui Seiyaku), and further it was centrifuged at 1,000 rpm for 10 minutes. The precipitate obtained was suspended in the Hanks' solution and centrifuged and the operations were repeated once more to give the neutrophile.
The collected neutrophile of the guinea pigs was suspended in the Hanks' solution, the number of leukocyte in the suspension was determined by a cytometer (System K-2000; Toa Iyo Denshi Co.), and the suspension diluted with the Hanks' solution to 2×10^6 cells/ml was used in the determination as the cell suspension. After mixing 1 ml of the cell suspension and 10 μl of the purified keratan sulfate oligosaccharide (keratan sulfate tetrasaccharide (I), the keratan sulfate pentasaccharide (II), or the keratan sulfate disaccharide (III)) prepared in Example 1 described above, and the mixture was preincubated at 37° C. for an hour. […]
The supernatant obtained by the centrifugation was separated and the absorbance thereof was determined at 550 nm to estimate the quantity of reducing cytochrome c per 2×10^6 cells after the 10 minutes incubation. The quantity of reducing cytochrome c increases with the generation of active oxygen (O2^-). […]

NeuAc~Galβ1-4GlcNAc(6S)β1-3Gal(6S)β1-4GlcNAc(6S) [keratan sulfate pentasaccharide (II)]
degree of conjunctivitis: hyperemia, edema and lacrimation (FIG. 12) (allergic conjunctivitis): tended to show inhibition in all the items | quantity of synovial fluid (FIG. 5, result in words) (papain-induced arthritis): significantly less than that in the control group | inhibitory function for generation of active oxygen (O2^-) (FIG. 10) [1]: slightly observed
